From patent US9796711B2, “Substituted pyrazolo[3,4-b]pyridin-6-carboxylic acids and method of use” (AbbVie S.àr.l., priority 2015, dated 2017) come the findings set out here.

Assay [1] concerns the target T1, ΔF508-CFTR (Homo sapiens, UniProt P13569, DEL508-508).
T1 construct: host or cells: CFBE41o-, doxycycline-inducible
In words: CFTR cell surface levels using HRP-tagged ΔF508-CFTR expressing CFBE cells, intrinsic corrector capacity. The assay is classed as cell-based. The following applies: for EC50: read-out: EC50. An outline of the steps:
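Here the cells express ΔF508-CFTR with horseradish peroxidase inserted in extracellular loop 4, so only rescued channel at the surface gives luminescent signal. Compounds act on their own, 20 h at the reduced temperature of 33 °C; values are percent activity relative to DMSO and a 3 μM corrector.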

For assay [2], the target named is T1, ΔF508-CFTR. Put plainly: CFTR cell surface levels using HRP-tagged ΔF508-CFTR expressing CFBE cells, in the presence of a co-corrector. It counts as cell-based. The following applies: HRP-tagged ΔF508-CFTR expressing CFBE cells, in the presence of 3 μM co-corrector; for EC50: read-out: EC50. An outline of the steps:
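Cells were seeded with 0.5 μg/mL doxycycline and held 68 h at 37 °C. Test compounds plus 3 μM co-corrector (final 0.1% DMSO) were then added for 20 h at 33 °C. Washed cells received HRP substrate, and luminescence was normalized between DMSO and 3 μM co-corrector controls.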

Setting [3] is: HRP-tagged ΔF508-CFTR expressing CFBE cells, intrinsic corrector capacity (no co-corrector), 33° C., 20 hours.
Setting [4] is: HRP-tagged ΔF508-CFTR CFBE41o- cells, compounds alone (intrinsic corrector capacity), 20 hours at 33° C., positive control 3 μM corrector.
[5] abbreviates: HRP-tagged ΔF508-CFTR CFBE41o- cells, compounds alone (intrinsic corrector capacity), 20 hours at 33° C.
[6] abbreviates: HRP-tagged ΔF508-CFTR CFBE cells, compound alone (intrinsic corrector capacity), 20 hours at 33° C.

In general, EC50 refers to the concentration giving half of the maximal effect.

A value given as a limit tells only on which side of the number the result lay.

T1 sequence (P13569 with tags, fused parts or gaps DEL508-508): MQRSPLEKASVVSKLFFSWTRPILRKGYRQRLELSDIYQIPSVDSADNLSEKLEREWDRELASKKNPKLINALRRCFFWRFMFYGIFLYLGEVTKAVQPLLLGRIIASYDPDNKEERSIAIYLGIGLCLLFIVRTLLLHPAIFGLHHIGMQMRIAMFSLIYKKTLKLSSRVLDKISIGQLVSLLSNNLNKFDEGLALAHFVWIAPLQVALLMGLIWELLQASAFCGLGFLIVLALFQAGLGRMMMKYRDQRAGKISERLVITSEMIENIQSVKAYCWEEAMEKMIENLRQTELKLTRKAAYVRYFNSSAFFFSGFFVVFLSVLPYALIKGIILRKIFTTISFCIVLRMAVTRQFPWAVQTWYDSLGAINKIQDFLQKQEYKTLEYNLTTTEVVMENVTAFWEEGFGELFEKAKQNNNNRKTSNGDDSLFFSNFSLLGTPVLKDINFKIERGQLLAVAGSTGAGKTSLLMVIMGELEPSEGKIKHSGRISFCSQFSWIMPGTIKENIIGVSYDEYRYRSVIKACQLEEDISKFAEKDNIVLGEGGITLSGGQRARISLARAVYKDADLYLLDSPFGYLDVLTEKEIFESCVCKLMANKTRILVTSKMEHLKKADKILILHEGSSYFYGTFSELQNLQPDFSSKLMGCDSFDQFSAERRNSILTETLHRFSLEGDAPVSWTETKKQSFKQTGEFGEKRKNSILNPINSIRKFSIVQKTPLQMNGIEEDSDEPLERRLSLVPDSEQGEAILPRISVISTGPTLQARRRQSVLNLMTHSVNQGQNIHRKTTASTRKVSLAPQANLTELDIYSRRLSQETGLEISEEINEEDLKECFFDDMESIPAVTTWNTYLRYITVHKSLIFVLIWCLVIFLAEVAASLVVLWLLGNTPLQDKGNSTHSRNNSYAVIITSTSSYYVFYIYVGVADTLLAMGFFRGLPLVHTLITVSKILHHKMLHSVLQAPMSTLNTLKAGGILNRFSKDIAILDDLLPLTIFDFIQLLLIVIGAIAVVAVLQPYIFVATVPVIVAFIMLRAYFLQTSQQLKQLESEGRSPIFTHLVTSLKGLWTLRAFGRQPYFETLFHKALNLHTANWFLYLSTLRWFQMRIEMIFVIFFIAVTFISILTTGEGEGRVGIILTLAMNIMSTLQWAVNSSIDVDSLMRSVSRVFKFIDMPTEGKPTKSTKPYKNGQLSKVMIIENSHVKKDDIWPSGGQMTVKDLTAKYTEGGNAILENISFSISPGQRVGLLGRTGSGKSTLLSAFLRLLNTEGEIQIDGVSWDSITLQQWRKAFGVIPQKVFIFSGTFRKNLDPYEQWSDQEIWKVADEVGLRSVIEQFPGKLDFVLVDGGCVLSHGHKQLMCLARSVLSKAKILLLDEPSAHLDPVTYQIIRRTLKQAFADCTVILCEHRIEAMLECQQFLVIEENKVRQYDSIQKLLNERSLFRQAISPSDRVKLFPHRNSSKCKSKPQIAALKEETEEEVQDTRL

`CC(C)c1nn(-c2ccc(F)cc2)c2nc(C(=O)O)cc(N3CCC4(CC3)OCCO4)c12` [compound 782, 4-(1,4-dioxa-8-azaspiro[4.5]decan-8-yl)-1-(4-fluorophenyl)-3-(propan-2-yl)-1H-pyrazolo[3,4-b]pyridine-6-carboxylic acid]: at ΔF508-CFTR [1] (setting [3]), the “% Activation” value came out at 174.4% and the EC50 came out at 0.673 µM. Moreover, at ΔF508-CFTR [2], the “% Activation” value worked out at 345.2% and the EC50 came out at 0.272 µM.

Regarding `Cc1nn(-c2ccccc2)c2nc(C(=O)O)cc(OC[C@@H](F)C3CCN(C)CC3)c12` [compound 379, 4-[(2S)-2-fluoro-2-(1-methylpiperidin-4-yl)ethoxy]-3-methyl-1-phenyl-1H-pyrazolo[3,4-b]pyridine-6-carboxylic acid], the “% Activation” value on ΔF508-CFTR [1] (setting [4]) was 4.874%; at ΔF508-CFTR [2] it was 128.5%. Besides, the EC50 on ΔF508-CFTR [1] (setting [5]) and at ΔF508-CFTR [2] was 5.01 µM each time.

As to `COCC1(F)CCCN(c2cc(C(=O)O)nc3c2c(C2CCC2)nn3-c2ccccc2)C1` (centres unmarked) [compound 595, 3-cyclobutyl-4-[3-fluoro-3-(methoxymethyl)piperidin-1-yl]-1-phenyl-1H-pyrazolo[3,4-b]pyridine-6-carboxylic acid], at ΔF508-CFTR [1] (setting [3]), the “% Activation” value is 162.8% and the EC50 worked out at 0.347 µM. In addition, at ΔF508-CFTR [2], the “% Activation” value came out at 383.8% and the EC50 stood at 0.207 µM.

Regarding `O=C(O)c1cc(-c2ccc(N3CCOCC3)cc2)c2c(C3CCC3)nn(-c3cc(F)cc(F)c3)c2n1` [compound 353, 3-cyclobutyl-1-(3,5-difluorophenyl)-4-[4-(morpholin-4-yl)phenyl]-1H-pyrazolo[3,4-b]pyridine-6-carboxylic acid], the “% Activation” value is on record as 224.1% at ΔF508-CFTR [1] (setting [4]) and 438.65% at ΔF508-CFTR [2]. For the same compound, the EC50 at ΔF508-CFTR [1] (setting [5]) was 0.506 µM; on ΔF508-CFTR [2], 0.459 µM.

Turning to `CN(c1cc(C(=O)O)nc2c1c(C1CCC1)nn2-c1ccccc1)[C@H]1C[C@@H](OC(C)(C)C)C1` [compound 439, 4-[(cis-3-tert-butoxycyclobutyl)(methyl)amino]-3-cyclobutyl-1-phenyl-1H-pyrazolo[3,4-b]pyridine-6-carboxylic acid], on ΔF508-CFTR [1] (setting [3]), the “% Activation” value turned out to be 120.85% and the EC50 is 1.12 µM. In addition, at ΔF508-CFTR [2], the “% Activation” value was 312.85% and the EC50 was found to be 1.11 µM.

Consider `COCCN(C)c1ccc(-c2cc(C(=O)O)nc3c2c(C(C)C)nn3-c2cccc(N3CCOCC3)c2)cc1` [compound 188, 4-{4-[(2-methoxyethyl)(methyl)amino]phenyl}-1[3-(morpholin-4-yl)phenyl]-3-(propan-2-yl)-1H-pyrazolo[3,4-b]pyridine-6-carboxylic acid], for which the “% Activation” value at ΔF508-CFTR [1] (setting [4]) is 282.4%; on ΔF508-CFTR [2], 432.9%. Also, the EC50 at ΔF508-CFTR [1] (setting [5]) came out at 0.636 µM; on ΔF508-CFTR [2] it was 0.499 µM.

`COC1CCC(Oc2cc(C(=O)O)nc3c2c(C)nn3-c2ccccc2)CC1` (centres unmarked) [compound 376, 4-[(4-methoxycyclohexyl)oxy]-3-methyl-1-phenyl-1H-pyrazolo[3,4-b]pyridine-6-carboxylic acid]: the “% Activation” value is 109.7% on ΔF508-CFTR [1] (setting [4]) and 289.4% at ΔF508-CFTR [2]. For the same compound, the half-maximal effective concentration (EC50) amounted to 1.61 µM at ΔF508-CFTR [1] (setting [5]) and 1.14 µM on ΔF508-CFTR [2].

With `N#CC1CCN(c2ccc(-c3cc(C(=O)O)nc4c3c(C3CC(F)(F)C3)nn4-c3ccccc3)cn2)CC1` [compound 420, 4-[6-(4-cyanopiperidin-1-yl)pyridin-3-yl]-3-(3,3-difluorocyclobutyl)-1-phenyl-1H-pyrazolo[3,4-b]pyridine-6-carboxylic acid], on ΔF508-CFTR [1] (setting [3]), the “% Activation” value is reported as 211.15% and the EC50 worked out at 0.534 µM. For the same compound, on ΔF508-CFTR [2], the “% Activation” value is reported as 411.25% and the EC50 came out at 0.289 µM.

Regarding `O=C(O)c1cc(N2CC(F)(F)C[C@@H]2CO)c2c(C3CCC3)nn(-c3ccccc3)c2n1` [compound 506, 3-cyclobutyl-4-[(2R)-4,4-difluoro-2-(hydroxymethyl)pyrrolidin-1-yl]-1-phenyl-1H-pyrazolo[3,4-b]pyridine-6-carboxylic acid], the “% Activation” value at ΔF508-CFTR [1] (setting [3]) is recorded as 40.12%; at ΔF508-CFTR [2] it was 137.7%. Besides, the values for the EC50 at ΔF508-CFTR [1] (setting [3]) and on ΔF508-CFTR [2] were 3.34 µM and over 10 µM, respectively.

In the case of `CCOCC1(F)CCN(c2cc(C(=O)O)nc3c2c(C2CCC2)nn3-c2ccccc2)C1` (centres unmarked) [compound 510, 3-cyclobutyl-4-[3-(ethoxymethyl)-3-fluoropyrrolidin-1-yl]-1-phenyl-1H-pyrazolo[3,4-b]pyridine-6-carboxylic acid], on ΔF508-CFTR [1] (setting [3]), the “% Activation” value is 99.8% and the EC50 was 1.11 µM. Also, at ΔF508-CFTR [2], the “% Activation” value came out at 313.2% and the EC50 was found to be 0.397 µM.

On to `CC(C)Oc1nn(C2CCCCC2)c2nc(C(=O)O)cc(-c3ccc(C#N)cc3)c12` [compound 923, 4-(4-cyanophenyl)-1-cyclohexyl-3-[(propan-2-yl)oxy]-1H-pyrazolo[3,4-b]pyridine-6-carboxylic acid], for which the “% Activation” value is 60.466% on ΔF508-CFTR [1] (setting [6]) and 263% on ΔF508-CFTR [2]. Further, the results for the EC50 on ΔF508-CFTR [1] (setting [6]) and at ΔF508-CFTR [2] were 0.355 µM and 0.38 µM, respectively.

For `CC(C)c1nn(-c2ccccc2)c2nc(C(=O)O)cc(-c3cnc(N4CCOCC4)nc3)c12` [compound 79, 4-[2-(morpholin-4-yl)pyrimidin-5-yl]-1-phenyl-3-(propan-2-yl)-1H-pyrazolo[3,4-b]pyridine-6-carboxylic acid], the “% Activation” value is 195.9% at ΔF508-CFTR [1] (setting [4]) and 256.45% on ΔF508-CFTR [2]. For the same compound, the EC50 at ΔF508-CFTR [1] (setting [5]) was determined as 0.697 µM; on ΔF508-CFTR [2], 5.28 µM.

With `N#CC1CN(C2CCN(c3cc(C(=O)O)nc4c3c(C3CCC3)nn4-c3ccc(F)cc3)CC2)CCO1` (centres unmarked) [compound 851, 4-[4-(2-cyanomorpholin-4-yl)piperidin-1-yl]-3-cyclobutyl-1-(4-fluorophenyl)-1H-pyrazolo[3,4-b]pyridine-6-carboxylic acid], the “% Activation” value at ΔF508-CFTR [1] (setting [3]) amounted to 342.9%; at ΔF508-CFTR [2], 559.8%. Also, the concentration for a half-maximal effect (EC50) on ΔF508-CFTR [1] (setting [3]) is 0.244 µM; on ΔF508-CFTR [2], 0.123 µM.

In the case of `CCN(CC)C1CCN(c2cc(C(=O)O)nc3c2c(C2CCC2)nn3-c2ccccc2)CC1` [compound 689, 3-cyclobutyl-4-[4-(diethylamino)piperidin-1-yl]-1-phenyl-1H-pyrazolo[3,4-b]pyridine-6-carboxylic acid], on ΔF508-CFTR [1] (setting [3]), the “% Activation” value amounted to 182.7% and the EC50 amounted to 1.57 µM. At ΔF508-CFTR [2], the “% Activation” value was found to be 329% and the EC50 amounted to 0.803 µM.

On to `O=C(O)c1cc(N2CC3(CCOC3)C2)c2c(C3CCC3)nn(-c3ccccc3)c2n1` [compound 534, 3-cyclobutyl-4-(6-oxa-2-azaspiro[3.4]octan-2-yl)-1-phenyl-1H-pyrazolo[3,4-b]pyridine-6-carboxylic acid], for which, at ΔF508-CFTR [1] (setting [3]), the “% Activation” value is on record as 111% and the EC50 turned out to be 3.33 µM. On ΔF508-CFTR [2], the “% Activation” value is recorded as 281.95% and the EC50 was found to be 0.893 µM.

As for `Cc1nn(-c2ccccc2)c2nc(C(=O)O)cc(N3CCC([C@H](F)CN(C)C)CC3)c12` [compound 314, 4-{4-[(1S)-2-(dimethylamino)-1-fluoroethyl]piperidin-1-yl}-3-methyl-1-phenyl-1H-pyrazolo[3,4-b]pyridine-6-carboxylic acid], the “% Activation” value at ΔF508-CFTR [1] (setting [4]) is given as 92.46%; at ΔF508-CFTR [2] it was 250.1%. Moreover, the EC50 at ΔF508-CFTR [1] (setting [5]) and at ΔF508-CFTR [2] was 2.51 µM in each case.

Take `Cc1nn(-c2ccccc2)c2nc(C(=O)O)cc(OCC3(CF)CC3)c12` [compound 387, 4-{[1-(fluoromethyl)cyclopropyl]methoxy}-3-methyl-1-phenyl-1H-pyrazolo[3,4-b]pyridine-6-carboxylic acid]: the “% Activation” value on ΔF508-CFTR [1] (setting [4]) is listed as 65.365%; at ΔF508-CFTR [2], 224.5%. In addition, the EC50 on ΔF508-CFTR [1] (setting [5]) and on ΔF508-CFTR [2] was 1.67 µM in each case.

Consider `CN(C)c1ccc(-c2cc(C(=O)O)nc3c2c(C2CC2)nn3C2CCCCC2)cn1` [compound 193, 1-cyclohexyl-3-cyclopropyl-4-[6-(dimethylamino)pyridin-3-yl]-1H-pyrazolo[3,4-b]pyridine-6-carboxylic acid], for which the “% Activation” value worked out at 194.98% at ΔF508-CFTR [1] (setting [4]) and 402.32% at ΔF508-CFTR [2]. In addition, the EC50 was 0.633 µM at ΔF508-CFTR [1] (setting [5]) and 0.425 µM at ΔF508-CFTR [2].

`CC(C)c1nn(C2CCCCC2)c2nc(C(=O)O)cc(-c3ccc(N4CCCC(F)C4)nc3)c12` (centres unmarked) [compound 223, 1-cyclohexyl-4-[6-(3-fluoropiperidin-1-yl)pyridin-3-yl]-3-(propan-2-yl)-1H-pyrazolo[3,4-b]pyridine-6-carboxylic acid]: the “% Activation” value on ΔF508-CFTR [1] (setting [4]) turned out to be 246.95%; at ΔF508-CFTR [2], 484.45%. Besides, the EC50 at ΔF508-CFTR [1] (setting [5]) is 0.714 µM; at ΔF508-CFTR [2], 0.687 µM.

`O=C(O)c1cc(N2CCC(N3CCOCC3)CC2)c2c(C3CCC3)nn(-c3cc(F)cc(F)c3)c2n1` [compound 905, 3-cyclobutyl-1-(3,5-difluorophenyl)-4-[4-(morpholin-4-yl)piperidin-1-yl]-1H-pyrazolo[3,4-b]pyridine-6-carboxylic acid]: at ΔF508-CFTR [1] (setting [3]), the “% Activation” value is 278.8% and the EC50 was found to be 0.362 µM. For the same compound, on ΔF508-CFTR [2], the “% Activation” value worked out at 466.55% and the EC50 worked out at 0.145 µM.
